Source: PubChem BioAssay (NCI)
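GI50 marks 50% less growth. TGI is the concentration that stops growth completely.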

Key:
Assay in all cases: NCI-60 cell line screen, 384-well format
OVCAR-8 ovarian = system: OVCAR-8 ovarian
HL-60(TB) leukemia = system: HL-60(TB) leukemia
MDA-MB-231 breast = system: MDA-MB-231 breast
NCI-H322M lung = system: NCI-H322M lung
OVCAR-3 ovarian = system: OVCAR-3 ovarian
SK-MEL-28 melanoma = system: SK-MEL-28 melanoma
MALME-3M melanoma = system: MALME-3M melanoma
SW-620 colon = system: SW-620 colon
CAKI-1 renal = system: CAKI-1 renal
K-562 leukemia = system: K-562 leukemia
TK-10 renal = system: TK-10 renal
T-47D breast = system: T-47D breast
UACC-257 melanoma = system: UACC-257 melanoma
RXF 393 renal = system: RXF 393 renal
SF-295 CNS = system: SF-295 CNS
SF-539 CNS = system: SF-539 CNS
OVCAR-4 ovarian = system: OVCAR-4 ovarian
SN12C renal = system: SN12C renal
NCI-H460 NSCLC = system: NCI-H460 NSCLC
NCI-H522 lung = system: NCI-H522 lung
UO-31 renal = system: UO-31 renal
HOP-62 NSCLC = system: HOP-62 NSCLC
HOP-92 NSCLC = system: HOP-92 NSCLC
ACHN renal = system: ACHN renal
SK-MEL-5 melanoma = system: SK-MEL-5 melanoma
SK-MEL-2 melanoma = system: SK-MEL-2 melanoma
786-0 renal = system: 786-0 renal
A498 renal = system: A498 renal

## C[C@@H]1Cc2c([nH]c3ccccc23)[C@@H](c2c(F)cc(NC3CN(CCCF)C3)cc2F)N1CC(F)(F)CO
OVCAR-8 ovarian
  TGI: 8.09 µM
HL-60(TB) leukemia
  GI50: 1390 nM
  TGI: 2690 nM
MDA-MB-231 breast
  GI50: 3.54 µM
  TGI: 12.1 µM
NCI-H322M lung
  GI50: 2810 nM
  TGI: 6.54 µM
OVCAR-3 ovarian
  GI50: 1880 nM
  TGI: 4.05 µM
SK-MEL-28 melanoma
  GI50: 1600 nM
  TGI: 2960 nM
MALME-3M melanoma
  GI50: 1550 nM
  TGI: 2890 nM
SW-620 colon
  GI50: 1710 nM
  TGI: 3.12 µM
CAKI-1 renal
  GI50: 1660 nM
  TGI: 3.25 µM
K-562 leukemia
  GI50: 1590 nM
  TGI: 2950 nM
TK-10 renal
  GI50: 1750 nM
  TGI: 3.26 µM
T-47D breast
  GI50: 1300 nM
  TGI: 2690 nM
UACC-257 melanoma
  GI50: 1560 nM
  TGI: 2910 nM
RXF 393 renal
  GI50: 1340 nM
  TGI: 2880 nM
SF-295 CNS
  GI50: 1970 nM
  TGI: 3.68 µM
SF-539 CNS
  GI50: 1640 nM
  TGI: 3.25 µM
OVCAR-4 ovarian
  GI50: 1320 nM
  TGI: 4.65 µM
SN12C renal
  GI50: 4.89 µM
  TGI: 16.5 µM
NCI-H460 NSCLC
  GI50: 1470 nM
  TGI: 2860 nM
NCI-H522 lung
  GI50: 2360 nM
  TGI: 4.63 µM
UO-31 renal
  GI50: 1780 nM
  TGI: 3.81 µM
HOP-62 NSCLC
  GI50: 2370 nM
  TGI: 6.24 µM
HOP-92 NSCLC
  GI50: 1790 nM
  TGI: 3.68 µM
ACHN renal
  GI50: 1710 nM
  TGI: 3.16 µM
SK-MEL-5 melanoma
  GI50: 1490 nM
  TGI: 2820 nM
SK-MEL-2 melanoma
  GI50: 1630 nM
  TGI: 2980 nM
786-0 renal
  GI50: 1820 nM
  TGI: 3.23 µM
A498 renal
  GI50: 1450 nM
  TGI: 2820 nM
